Measurements from EP0590919A1, “Therapeutic agents for parkinson's disease” (KYOWA HAKKO KOGYO CO., LTD., priority 1992, dated 1994).

Columns and labels:
dd-strain male mice = assay: Acute toxicity test (minimum lethal dose, oral); assay type: in vivo; details: oral administration, three mice per group, mortality seven days after administration
Protocol: Test compounds were orally administered to groups of dd-strain male mice weighing 20 ± 1 g, each group consisting of three mice. Seven days after the administration, minimum lethal dose (MLD) of each compound was determined by observing the mortality.

[1] = tested on: Haloperidol-Induced Catalepsy; assay: Effect on haloperidol-induced catalepsy; assay type: in vivo, mice; details: for ED50: Mus musculus, 1 h, ten mice at each dose, effective = catalepsy score 3 or less, Probit analysis, oral, read-out: ED₅₀; for Number of the Animals Showing Remission: of five mice, catalepsy score not more than 4 points; for Number of the Animals Showing Remission / Remission Rate (%) / Total Score: 10 mg/kg orally; for Remission Rate (%): rate of decrease in total score based on control group; for Total Score: total catalepsy score of five mice (25 points at the full), haloperidol 1.0 mg/kg i.p.
Protocol: Haloperidol (Janssen Pharmaceutica) suspended in 0.3% CMC was intraperitoneally administered to each mouse at a dose of 1.0 mg/kg. Test compounds were suspended in 0.3% CMC or in injectable distilled water (Otsuka Pharmaceutical Co., Ltd.) containing Tween 80. L-DOPA (Kyowa Hakko Kogyo Co., Ltd.) and benserazide hydrochloride (Kyowa Hakko Kogyo Co., Ltd.) were suspended in 0.3% CMC. One hour after the haloperidol administration, the test compound suspensions and the control suspension [injectable distilled water (Otsuka Pharmaceutical Co., Ltd.) containing Tween 80] containing no test compound were orally administered to separate groups of the mice (0.1 ml per 10 g of body weight). One hour after the administration of the test compound, the forelimbs of each mouse and subsequently the hindlimbs of the same mouse were placed on a 4.5 cm-high, 1.0 cm-wide bar and catalepsy was estimated. […] The catalepsy score and the standard of judgment are shown below. […] The number of the animals showing remission against catalepsy is the number of the mice for which the catalepsy score was not more than 4 points. […] The ED₅₀ values were calculated by Probit analysis.

A₂ receptor = target: T1, A₂ receptor (Rattus norvegicus, UniProt P30543); assay: Adenosine A₂ receptor binding test (³H-NECA binding); details: ³H-NECA binding, rat corpus striatum, read-out: Inhibition (%) A₂ Receptor; for inhibition at 100 µM: 10⁻⁴M; for inhibition at 10 µM: 10⁻⁵M; for inhibition at 1 µM: 10⁻⁶M; for inhibition at 0.1 µM: 10⁻⁷M
T1 construct: from tissue; host or cells: rat corpus striatum membrane preparation
T1 sequence (P30543 whole entry): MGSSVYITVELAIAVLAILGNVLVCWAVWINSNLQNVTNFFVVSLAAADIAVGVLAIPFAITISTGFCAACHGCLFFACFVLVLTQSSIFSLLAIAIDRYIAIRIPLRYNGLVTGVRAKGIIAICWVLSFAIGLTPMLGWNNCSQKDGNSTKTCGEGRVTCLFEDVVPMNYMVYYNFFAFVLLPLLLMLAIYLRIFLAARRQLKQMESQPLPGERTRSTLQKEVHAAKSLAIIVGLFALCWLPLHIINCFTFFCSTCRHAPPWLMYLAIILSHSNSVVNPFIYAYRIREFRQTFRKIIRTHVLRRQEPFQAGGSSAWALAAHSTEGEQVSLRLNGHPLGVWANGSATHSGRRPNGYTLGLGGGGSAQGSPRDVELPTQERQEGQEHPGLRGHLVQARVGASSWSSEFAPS
Protocol: The similar procedure as in the above-described adenosine A₁ receptor binding test was repeated using rat corpus striatum to obtain the final precipitate of the tissue thereof. The precipitate was suspended in 50 mM Tris HCl buffer containing 10 mM magnesium chloride and 0.02 unit/mg tissue of adenosine deaminase (manufactured by Sigma Co.) to give a tissue concentration of 5 mg (wet weight)/ml.
The mixture solution was allowed to stand at 25°C for 120 minutes and then treated in the same manner as in the adenosine A₁ receptor binding test to determine the radioactivity bound to the A₂ receptors.
The inhibition rate of the test compound against the binding of A₂ receptor (³H-NECA binding) was calculated by the following equation: [formula] [Notes] • 1.

Structure (SMILES)	MLD (dd-strain male mice) [mg/kg]	ED50 [1] [mg/kg]	Number of the Animals Showing Remission [1]	Remission Rate (%) [1] [%]	Total Score [1]	inhibition at 100 µM (A₂ receptor) [%]	inhibition at 10 µM (A₂ receptor) [%]	inhibition at 1 µM (A₂ receptor) [%]	inhibition at 0.1 µM (A₂ receptor) [%]
CCn1c(=O)c2c(nc(/C=C/c3ccc(OC)cc3OC)n2C)n(CC)c1=O [Compound 6, (E)-8-(2,4-Dimethoxystyryl)-1,3-diethyl-7-methylxanthine]	> 300	1.7	5	76	6	–	–	–	–
CCn1c(=O)c2c(nc(/C=C/c3cc(C)c(OC)cc3C)n2C)n(CC)c1=O [Compound 12, (E)-1,3-Diethyl-8-(4-methoxy-2,5-dimethylstyryl)-7-methylxanthine]	> 300	2.7	5	52	12	–	–	–	–
COc1ccc(/C=C/c2nc3c([nH]2)c(=O)n(C)c(=O)n3C)c(OC)c1C [Compound 31, (E)-8-(2,4-Dimethoxy-3-methylstyryl)theophylline]	> 100	–	4	36	16	79	89	82	74
COc1ccc(/C=C/c2nc3c(c(=O)n(C)c(=O)n3C)n2C)c(OC)c1C [Compound 32, (E)-8-(2,4-Dimethoxy-3-methylstyryl)caffeine]	> 100	–	4	32	17	98	82	84	83
CCn1c(=O)c2c(nc(/C=C/c3cc(C)ccc3C)n2C)n(CC)c1=O [Compound 34, (E)-8-(2,5-Dimethylstyryl)-1,3-diethyl-7-methylxanthine]	> 300	2.6	5	68	8	94	90	93	86
CCOc1ccc(/C=C/c2nc3c(c(=O)n(CC)c(=O)n3CC)n2C)cc1 [Compound 36, (E)-8-(4-Ethoxystyryl)-1,3-diethyl-7-methylxanthine]	> 300	1.5	5	76	6	–	–	101	71
CCCOc1ccc(/C=C/c2nc3c(c(=O)n(CC)c(=O)n3CC)n2C)cc1 [Compound 38, (E)-1,3-Diethyl-7-methyl-8-(4-propoxystyryl)xanthine]	> 300	2.5	4	68	8	–	–	94	71
CCn1c(=O)c2c(nc(/C=C/c3ccc(OC)c(OC)c3Cl)n2C)n(CC)c1=O [Compound 50, (E)-8-(2-Chloro-3,4-dimethoxystyryl)-1,3-diethyl-7-methylxanthine]	> 300	3.8	4	24	19	93	88	95	88
COc1ccc(/C=C/c2nc3c(c(=O)n(C)c(=O)n3C)n2C)c(Cl)c1OC [Compound 52, (E)-8-(2-Chloro-3,4-dimethoxystyryl)caffeine]	> 300	1.7	5	60	10	83	81	88	78
CCn1c(=O)c2c(nc(/C=C/c3ccc(F)c(F)c3)n2C)n(CC)c1=O [Compound 54, (E)-8-(3,4-Difluorostyryl)-1,3-diethyl-7-methylxanthine]	> 300	–	5	28	18	96	95	94	63
CCn1c(=O)c2c(nc(/C=C/c3ccc(OC)c(Br)c3)n2C)n(CC)c1=O [Compound 56, (E)-8-(3-Bromo-4-methoxystyryl)-1,3-diethyl-7-methylxanthine]	> 100	–	5	44	14	99	97	92	74
CCn1c(=O)c2[nH]c(/C=C/c3cccc(OC)c3[N+](=O)[O-])nc2n(CC)c1=O [Compound 63, (E)-1,3-Diethyl-8-(3-methoxy-2-nitrostyryl)xanthine]	> 300	–	3	32	17	79	74	–	–
CCn1c(=O)c2[nH]c(/C=C/c3cccc(F)c3)nc2n(CC)c1=O [Compound 65, (E)-1,3-Diethyl-8-(3-fluorostyryl)xanthine]	> 100	–	–	–	–	–	–	64	64
CCn1c(=O)c2c(nc(/C=C/c3cccc(F)c3)n2C)n(CC)c1=O [Compound 66, (E)-1,3-Diethyl-8-(3-fluorostyryl)-7-methylxanthine]	> 300	–	–	–	–	–	–	93	78
CCn1c(=O)c2[nH]c(/C=C/c3cc(OC)cc(OC)c3)nc2n(CC)c1=O [Compound 67, (E)-8-(3,5-Dimethoxystyryl)-1,3-diethylxanthine]	> 100	–	5	64	9	–	–	73	73
CCn1c(=O)c2c(nc(/C=C/c3cc(OC)cc(OC)c3)n2C)n(CC)c1=O [Compound 68, (E)-8-(3,5-Dimethoxystyryl)-1,3-diethyl-7-methylxanthine]	> 300	–	5	80	5	–	–	88	81
CCn1c(=O)c2c(nc(/C=C/c3cccc(Cl)c3)n2C)n(CC)c1=O [Compound 70, (E)-8-(3-Chlorostyryl)-1,3-diethyl-7-methylxanthine]	> 300	–	4	44	14	–	–	84	76
CCn1c(=O)c2c(nc(/C(F)=C\c3ccccc3)n2C)n(CC)c1=O [Compound 76, (E)-1,3-Diethyl-8-(α-fluorostyryl)-7-methylxanthine]	> 100	–	4	40	15	–	–	69	30
CCn1c(=O)c2[nH]c(/C=C/c3ccc(N(C)C)cc3)nc2n(CC)c1=O [Compound 99, (E)-8-[4-(N,N-Dimethylamino)styryl]-1,3-diethylxanthine]	> 100	–	–	–	–	–	–	64	25
